{"source": "patent US20080182835A1", "about": "(priority 2006, published 2008)", "key": {"[1]": {"system": "BHK cells infected with Sindbis virus", "test": "Cell viability of Sindbis-infected BHK cells, Trypan blue dye-exclusion and light microscopy", "type": "cell-based, hamster", "details": "for cell viability (viable cell count): 48 hour infection", "procedure": "Additional cell viability studies were done using a combined assessment of cellular morphology via light microscopy, or visual inspection of cell viability, and plasma membrane integrity measurements using a Trypan blue dye-exclusion assay. Specifically, BHK cells were seeded to the wells of a 96-well plate (2×10^4 cells/well) and cultured overnight in complete growth medium. […] After a 48 hour infection period, the cells were resuspended and an aliquot of cells (10 μL) was mixed with 90 μL 0.2% trypan blue. The number of viable cells was determined by counting with a hemocytometer.\nAlso, a corresponding set of wells was identically prepared exclusively for observation using Trypan blue staining and light microscopy. FIGS. 6A-6H are light microscopy images showing cell morphology at various concentrations of Co(NH3)6 at 48 hours post infection following 6 hours of pretreatment with Co(NH3)6. […] Viable cells remain attached to the tissue culture substrate and have an elongated, epithelial cell-like appearance. The arrows in FIGS. 6E-6G indicate examples of cells that have retained an elongated and adherent morphology. Non-viable cells are detached from the tissue culture substrate and are rounded. FIGS. 6B-6H illustrate that pronounced cell death is apparent in the presence of no Co(NH3)6 (FIG. 6B) and at lower concentrations of Co(NH3)6 (FIGS. 6C and 6D)."}, "SV-infected BHK cells": {"system": "SV-infected BHK cells", "test": "Flow cytometry propidium iodide viability of Sindbis-infected BHK cells", "type": "cell-based, hamster"}}, "data": [{"substance": "Co(NH3)6", "values": [{"measurement": "cell viability (viable cell count)", "setting": "[1]; Sindbis-infected, 6 hours pretreatment, at 1.2 mM", "value": 80, "unit": "%"}, {"measurement": "cell viability (viable cell count)", "setting": "[1]; Sindbis-infected, at 0.15 mM", "value": "further decreased viability"}, {"measurement": "cell morphology, viable cells by light microscopy", "setting": "[1]; Sindbis-infected, 48 hours post infection, at 0.6 and 1.2 mM", "value": "viable cells appeared more pronounced"}, {"measurement": "concentration providing optimal protection against Sindbis virus", "setting": "[1]; light microscopy and cell viability count", "value": 1.2, "unit": "mM"}, {"measurement": "percentage of PI-positive (non-viable) cells", "setting": "SV-infected BHK cells; at 0.15 mM, relative to untreated infected cells", "value": "significantly lower percentage"}, {"measurement": "effect of timing of treatment on survivability of the cells", "setting": "SV-infected BHK cells; pretreatment, co-infection, 2, 4 and 24 hours post-infection", "value": "very little effect"}]}]}
